Consider three molecules from publication PMC6365497, “2-aminoimidazoles collapse mycobacterial proton motive force and block the electron transport chain” (Scientific Reports, 2019).

The subject of test [1] is M. smegmatis. Description: Determination of Δψ collapse by DisC3(5). In kind it is cell-based. The conditions noted are these: for Δψ collapse: Acute (≤ 2 h); for Δψ collapse (summary): Table S2 summary.
The test system of test [2] is M. tuberculosis. Details: method as in PMID 28749949. The conditions noted are these: cited from earlier work.
Test [3] relates to M. smegmatis IMVs. Description: NADH oxidation by IMVs. The test is classed as biochemical. The conditions noted are these: for NADH oxidation (summary): Table S2 summary.
Test [4] concerns M. tuberculosis. Description: microbe, parasite or virus in culture. The test is classed as cell-based, Mycobacterium tuberculosis.
The test system of test [5] is M. smegmatis IMVs. Description: ETC activity assay with IMVs (INT reduction). The test is classed as biochemical. The settings on record: for ETC activity (summary): Table S2 summary.
Test [6] has as its system M. tuberculosis H37Rv mc^2 6206. In kind it is cell-based, Mycobacterium tuberculosis. The conditions noted are these: for NADH/NAD+ ratio: Low (≤ 62.5 µM) 2B8; for NADH/NAD+ ratio (summary): Table S2 summary.
The subject of test [7] is M. smegmatis IMVs. The test is classed as biochemical.
Test [8] concerns M. tuberculosis. Description: β-lactam potentiation assay. In kind it is cell-based, Mycobacterium tuberculosis. The conditions noted are these: for Fold potentiation of Carbenicillin / Fold potentiation of Meropenem: M. tuberculosis, compound at 50% of its MIC, MIC of β-lactam / MIC of β-lactam plus drug; for β-lactam potentiation (summary): Table S2 summary.
Test [9] relates to M. smegmatis. The test can be described thus: Kinetic measurement of alamarBlue reduction. In general terms: Resazurin is reduced to fluorescent resorufin, in cell work by metabolically active cells.
For test [10], the system named is mycobacterial cell membrane. The conditions noted are these: prolonged incubation (24 h); cited from earlier work.
In test [11] the test system is M. tuberculosis mc^2 6206. The test is classed as cell-based, Mycobacterium tuberculosis. The settings on record: for Effect on oxygen consumption rate (OCR): stepwise increasing concentration, media without BSA; for Concentration up to which OCR increased (levelling off): stepwise increments.
Test [12] relates to M. smegmatis IMVs. The test can be described thus: Determination of ΔpH collapse with IMVs (ACMA). The settings on record: for ΔpH collapse: Acute (≤ 2 h); for ΔpH collapse (summary): Table S2 summary.
The subject of test [13] is M. smegmatis. The test can be described thus: MIC against M. smegmatis. In kind it is cell-based. The conditions noted are these: M. smegmatis.
The test system of test [14] is M. tuberculosis. The test can be described thus: Quantification of intracellular ATP. The settings on record: for [ATP]i (summary): Table S2 summary.
Test [15] concerns M. tuberculosis. The test can be described thus: Kinetic measurement of alamarBlue reduction. In kind it is cell-based, Mycobacterium tuberculosis. The settings on record: for alamarBlue reduction (summary): Table S2 summary, mycobacteria.
Setting [16] is: Low (≤ 62.5 µM) 2B8, Acute (≤ 2 h).
Setting [17] is: High (> 62.5 µM) 2B8, Acute (≤ 2 h).
Setting [18] is: Low (≤ 62.5 µM) 2B8, Delayed (> 2 h).

≈ marks a conversion by molar mass, not a printed value. Where “and” joins values, the source holds several entries; their conditions need not be identical. Identical values can stand only once. Entries after “also recorded” stand apart in the source; their conditions may differ. Like-named read-outs stand apart in the source and are kept apart here.

`CCCCCCC(CCCCCC)NC(=O)CCCc1cnc(N)[nH]1` [2B8]: in the test on M. smegmatis [1], the “Effect on Δψ (membrane potential), DiSC3(5) fluorescence reversal” value is “rapidly depolarized the membrane potential”. In addition, the Δψ collapse entry with M. smegmatis [1] (High (> 62.5 µM) 2B8) and with M. smegmatis [1] (Low (≤ 62.5 µM) 2B8) was “S t r o ng” throughout. The “Δψ collapse (summary)” value in the test with M. smegmatis [1] was “S t r o ng”. Besides, the “MIC (MIC95)” value with M. tuberculosis [2] is recorded as 250 µM. In addition, the “Effect on NADH oxidation (fluorescence decay 340ex/460em)” value in the test with M. smegmatis IMVs [3] was “significantly inhibited”. For the same molecule, in the test with M. smegmatis IMVs [3] (setting [16]), the NADH oxidation result is recorded as “N o effect”. Further, in the test with M. smegmatis IMVs [3] (M. smegmatis IMVs), the “Concentration at which NADH oxidation is significantly inhibited” value is “greater than 62.5 µM”. Moreover, in the test on M. smegmatis IMVs [3], the “NADH oxidation (summary)” value is given as “S t r o ng ↓”. In addition, the MIC against M. tuberculosis [4] was 250 to 500 µM and 250 µM; in the test with M. smegmatis [13] (+0.5% BSA), 125 to 250 µM; in the test with M. smegmatis [13] (No BSA), 62.5 µM (≈ 21.9 µg/mL). The “ETC activity (INT reduction at 490 nm)” value in the test on M. smegmatis IMVs [5] was “potently inhibited”. Moreover, the ETC activity entry in the test with M. smegmatis IMVs [5] (setting [16]) was “N o effect”. Besides, the “Concentration with inhibitory effect on the ETC” value with M. smegmatis IMVs [5] (M. smegmatis IMVs) was no less than 78 µM. The “ETC activity (summary)” value in the test on M. smegmatis IMVs [5] is “S t r o ng ↓”. Also, in test [6], the “NADH/NAD^+ ratio” value is recorded as “significantly increased; also recorded: persisted”. In addition, the “NADH/NAD+ ratio” value in test [6] (Acute (≤ 2 h)) and in test [6] (Delayed (> 2 h)) was “N o effect- ↑” each time. Also, the “NADH/NAD+ ratio (summary)” value in test [6] is reported as “S t r o ng ↑”. In addition, the “Restoration of inhibited NADH oxidation by CFZ” value in the test on M. smegmatis IMVs [7] (M. smegmatis IMVs treated with 5 mM KCN, 80 µM TRZ or 125 µM 2B8, 42 µM CFZ added) is given as “also restored by CFZ”. Further, in the test with M. smegmatis IMVs [7] (Table S2 summary), the “Rescue by CFZ (summary)” value was “Partial”. Also, in the test on M. tuberculosis [8], the “Fold potentiation of Carbenicillin” value is given as 64x. The “Fold potentiation of Meropenem” value in the test with M. tuberculosis [8] is recorded as 64x. Besides, the “β-lactam potentiation (summary)” value with M. tuberculosis [8] is “S t r o ng ↑”. Also, the alamarBlue reduction result in the test with M. smegmatis [9] is on record as “inhibited”; in the test on M. tuberculosis [15], “inhibited”; with M. tuberculosis [15] (setting [18]), “N o effect”; in the test with M. tuberculosis [15] (M. tuberculosis, 2B8 62.5 µM), “not”. Also, in test [10], the “Concentration causing catastrophic cell membrane disruption” value is given as no less than 125 µM. Moreover, the O2 consumption rate entry in test [11] (setting [17]) is on record as “↓ to basal”. Also, in test [11] (M. tuberculosis), the “Concentration required to decrease OCR” value was no less than 93 µM. The “OCR versus basal OCR” value in test [11] (M. tuberculosis, 250 µM 2B8 (highest tested concentration)) is recorded as “no statistical difference”. The “Effect on oxygen consumption rate (OCR)” value in test [11] (M. tuberculosis) is recorded as “OCR increased”. Moreover, in test [11] (M. tuberculosis), the “Concentration up to which OCR increased (levelling off)” value amounted to 62.5 µM. Moreover, the “O2 consumption rate (summary)” value in [11] (Table S2 summary) was “↑ t he n ↓”. For the same molecule, in the test on M. smegmatis IMVs [12], the “Effect on ΔpH, ACMA fluorescence reversal” value is “collapsed the ΔpH”. In addition, the figures for the ΔpH collapse entry with M. smegmatis IMVs [12] (High (> 62.5 µM) 2B8) and in the test with M. smegmatis IMVs [12] (Low (≤ 62.5 µM) 2B8) were “S t r o ng” and “Low- Strong”, respectively. Also, the “ΔpH collapse (summary)” value with M. smegmatis IMVs [12] is recorded as “S t r o ng”. Also, the “[ATP]i” value is given as “N o effect” in the test with M. tuberculosis [14] (setting [17]), “N o effect” in the test on M. tuberculosis [14] (setting [16]) and “N o effect- ↓” in the test with M. tuberculosis [14] (setting [18]). Also, in the test on M. tuberculosis [14], the “[ATP]i (summary)” value is on record as “S t r o ng ↓”. Besides, in the test on M. tuberculosis [15], the “alamarBlue reduction (summary)” value is reported as “S t r o ng ↓”.

For `COc1nc2ccc(Br)cc2cc1[C@@H](c1ccccc1)[C@@](O)(CCN(C)C)c1cccc2ccccc12` [BDQ, bedaquiline, reference compound], the “Δψ collapse (summary)” value in the test on M. smegmatis [1] was “N o effect”. In the test on M. smegmatis IMVs [3], the “Effect on NADH oxidation (fluorescence decay 340ex/460em)” value is given as “inhibited” and the “NADH oxidation (summary)” value is given as “Intermediate ↓”. For the same molecule, in the test with M. tuberculosis [4] (Mycobacterium tuberculosis, M. tuberculosis, read-out: MIC (MIC95)), the MIC stood at 0.125 µM (≈ 0.0694 µg/mL). In the test with M. smegmatis IMVs [5], the “ETC activity (summary)” value is given as “N o effect”. Besides, in [6], the “NADH/NAD^+ ratio” value was “increased” and the “NADH/NAD+ ratio (summary)” value is “Intermediate ↑”. For the same molecule, in the test with M. tuberculosis [8], the “Fold potentiation of Carbenicillin” value is 4x, the “Fold potentiation of Meropenem” value was determined as 4x and the “β-lactam potentiation (summary)” value is “Weak ↑”. In addition, in test [11] (M. tuberculosis), the “Effect on oxygen consumption rate (OCR)” value is “significantly increased M. tuberculosis OCR” and the “Concentration up to which OCR increased (levelling off)” value is 9 µM. Besides, the “ΔpH collapse (summary)” value in the test on M. smegmatis IMVs [12] was “Intermediate”. In addition, the “[ATP]i (summary)” value in the test with M. tuberculosis [14] is given as “S t r o ng ↓”. Further, the “alamarBlue reduction (summary)” value with M. tuberculosis [15] was “N o effect”.

`CC1(C)S[C@@H]2[C@H](NC(=O)C(C(=O)O)c3ccccc3)C(=O)N2[C@H]1C(=O)O` (stereo partly shown) [Carbenicillin]: the “MIC (MIC95)” value in the test on M. tuberculosis [2] is 1000 µg/mL.
